Assay results reported in patent US7795305B2, “CDDO-compounds and combination therapies thereof” (Board of Regents, The University of Texas System, priority 2000, dated 2010).
pIC50: −log10 of the molar value. Read-outs that look alike come from different tables or passages of the source.

Key:
[1] = system: vascular endothelial cells (HUVECs); experiment: Proliferation of cytokine-stimulated vascular endothelial cells ([3H]-Thymidine, microscopy); type: cell-based
Method: (§1) CDDO. PPARγ nuclear receptor is expressed in bone marrow endothelial cells, and PPARγ ligands inhibit inhibited endothelial cell proliferation. […] The present inventors therefore tested the effects of CDDO in endothelial cell assays. The formation of tube-like endothelial structures was performed using Matrigel®, a basement membrane matrix extracted from the Engelbreth-Holm Swarm mouse sarcoma cell line. Bone marrow endothelial cells with recombinant angiogenic cytokines were incubated in the presence or absence of CDDO, and formation of tube-like endothelial structures was assessed by direct observation using a inverted contrast-phase microscope. […] Vascular endothelial cells (HUVEC) were grown in EBM-2 or EGM-2 media (Clonetics) containing VEGF, EGF, bFGF and IGF-1. The proliferation of endothelial cells was assessed by inverted contrast-phase microscope after 24 hrs of CDDO exposure in the indicated concentrations. CDDO-Me. The formation of tube-like endothelial structures that are associated with angiogenesis was analyzed using a Matrigel system (Kubota et al., 1988). Capillary-like structure formation of bone marrow endothelium was inhibited by CDDO-Me. […] Thus, CDDO-Me also has anti-angiogenic effects.

CML-BC sample = experiment: Colony formation of CML-BC sample; type: cell-based, human; conditions: CDDO 0.5 μM, CDDO-Me 0.1 μM
AML progenitors = experiment: AML blast colony assay; type: cell-based, human
Method: AML blast colony assay. A previously described method was used to measure AML blast colony formation. Briefly, 1×10^5 T-cell-depleted, nonadherent, low-density bone marrow cells were plated in 0.8% methylcellulose in Iscove's modified Dulbecco's medium (IMDM; Gibco Laboratories, Grand Island, N.Y.) supplemented with 10% fetal bovine serum and 15 ng/mL recombinant human granulocyte-macrophage colony-stimulating factor (hGM-CSF). CDDO or CDDO-Me was added at the initiation of cultures at concentrations ranging from 0.05 to 0.5 μg/mL. AML blast colonies were evaluated under a microscope on day 7 of culture in duplicate dishes.
The effect of CDDO on clonogenic AML cells were tested. […] (FIG. 7).
CDDO-Me. […] Effects of CDDO-Me were also tested on clonogenic AML cells.

[2] = system: bone marrow endothelial cells; experiment: Matrigel tube-like endothelial structure formation; type: cell-based
Method: as §1

Daudi cells = experiment: cells
Method: (§2) Suspension culture of leukemic cells. Leukemic cell lines were cultured at a density of 3.0×10^5 cells/mL, and AML mononuclear cells at 5×10^5 cells/mL in the presence or absence of indicated concentrations of CDDO-Me. Appropriate amounts of DMSO (final concentration<0.05%) was included as a control. For cytotoxicity studies, 1 μM ara-C was added to the cultures.
(§3) CDDO-Me. […] Mechanism of growth inhibition was analyzed on cell cycle and apoptosis in HL-60 cells.

[3] = system: human leukemic KBM-3 cells; experiment: Engraftment of leukemic cells in NOD/Scid mice, FISH; type: in vivo; conditions: 6 mg/kg/day IP for 10 days
Method: The effect of CDDO on engraftment of leukemic cells was further tested in NOD/Scid mice transplanted with 1×10^6 human leukemic KBM-3 cells. Eleven mice were treated with CDDO at 6 mg/kg/day IP (divided in 3 injections per day) for 10 days; a control set of 9 mice received vehicle alone. The engraftment of human leukemic cells was determined by FISH based on the known karyotype of the cells (trisomy 8) at 5 weeks following transplantation. While 10.6±2.7% cells were leukemic in the bone marrow of the control group (range 0.12-21%), only 3±2.4% leukemic cells were found in CDDO-treated mice (range 0.04-12.5%, p=0.016). 5/11 CDDO-treated animals but only ⅛ controls had <1% leukemic cells by FISH analysis.

HL-60 cells [4] = experiment: Viable cell count of leukemic cells in suspension culture (Trypan blue); type: cell-based, human; conditions: for pIC50: HL-60
Method: as §2
CDDO. […] The percentage of proliferating cells were analyzed by FCM.
as §3

435 breast cancer cells = experiment: Breast cancer growth in nude mice; type: in vivo; conditions: 20 and 40 mg/kg i.v. twice a week
Method: CDDO was given at 20 and 40 mg/kg i.v. twice a week 10 days after nude mice were injected s.c. with 2×10^6 estrogen-receptor negative, PPARγ positive 435 breast cancer cells.

primary AML cells = experiment: Apoptosis in primary AML samples, subG1 DNA flow cytometry; type: cell-based, human
Method: Subjects. Samples of bone marrow or peripheral blood were obtained for in vitro studies from patients with newly diagnosed or recurrent AML with high (>70%) blast count and from patients with myeloid transformation of chronic myeloid leukemia (CML). Informed consent was obtained following institutional guidelines. Mononuclear cells were separated by Ficoll-Hypaque (Sigma Chemical Co) density-gradient centrifugation.
as §2
Cell kinetic and DNA fragmentation studies. The cell cycle kinetics was determined by staining cells with acridine orange for cellular DNA and RNA content followed by flow cytometeric analysis as described. […] Ten thousand events were stored in list mode for analysis. The percentage of cells in the “sub G1 peak” defined the proportion of apoptotic cells in the tested populations. […] Cell-cycle kinetics was analyzed using ModFit software (Verity Software House, Inc., Topsham, Me.). […]

HL-60 cells [5] = experiment: Apoptotic sub-G1 cells / apoptosis; type: cell-based, human
Method: Cell kinetic and DNA fragmentation studies. The cell cycle kinetics was determined by staining cells with acridine orange for cellular DNA and RNA content followed by flow cytometeric analysis as described. Samples were measured in a FACScan flow cytometer (Becton Dickinson, San Jose, Calif.) using the 488-nm line of a […] argon laser and filter settings for green (530 nm) (DNA) and red (585 nm) (RNA) fluorescence. Ten thousand events were stored in list mode for analysis. The percentage of cells in the “sub G1 peak” defined the proportion of apoptotic cells in the tested populations. […] Cell-cycle kinetics was analyzed using ModFit software (Verity Software House, Inc., Topsham, Me.).
Comparison of CDDO-compounds with other PPARγ ligands. […] In contrast, CDDO induced monocytic differentiation at 0.5 to 1.0 μM and apoptosis at 1 μM in HL-60 cells. […] These experiments will define the ability of CDDO to induce differentiation and apoptosis in comparison to other PPARγ ligands. Similar experiments are contemplated with CDDO-Me.

Q: For `CC1(C)CCC2(C(=O)O)CCC3(C)C(C(=O)C=C4C5(C)C=C(C#N)C(=O)C(C)(C)C5CCC43C)C2C1` (stereo not shown) [CDDO, 2-cyano-3,12-dioxoolen-1,9-dien-28-oic acid], which “proliferation / structure formation of cytokine-stimulated vascular endothelial cells” value [1] is on record?
A: Its value is “diminished the proliferation”.

Q: What about the inhibition at 0.5 µM (CML-BC sample; Homo sapiens, read-out: inhibition of colonies in one CML-BC sample) of the same compound?
A: The inhibition at 0.5 µM was > 50%.

Q: And the “colony formation of AML progenitors reduced” value (AML progenitors; 1 μM, n=6)?
A: Its value is 58±4.6%.

Q: And the “formation of capillary-like structures by bone marrow endothelium” value [2]?
A: The value was “potently inhibited the formation of capillary-like structures”.

Q: What about the Daudi cells alive (Daudi cells; 1 μM) of the same compound?
A: Its Daudi cells alive is 73.6%.

Q: And the viability at 2 µM (Daudi cells; Homo sapiens, Daudi, read-out: viable cells)?
A: The viability at 2 µM was 25.3%.

Q: And the “animals with <1% leukemic cells by FISH” value [3]?
A: The value was 5/11.

Q: And the “leukemic cells in the bone marrow, range” value [3]?
A: Its value is 0.04-12.5%.

Q: And the “leukemic cells in the bone marrow (FISH)” value ([3]; 5 weeks after transplantation (control 10.6±2.7%))?
A: Its value is 3±2.4%.

Q: What about the pIC50 (HL-60 cells [4]; Homo sapiens, 72 and 96 hours, read-out: concentration of CDDO that reduced cell numbers by 50%) of the same compound?
A: Its pIC50 is 9.00.

Q: What about the pIC50 (HL-60 cells [4]; Homo sapiens, 48 hours, read-out: concentration of CDDO that reduced cell numbers by 50%) of the same compound?
A: The pIC50 was 8.00.

Q: What about the “growth of breast cancer cells in vivo” value (435 breast cancer cells) of the same compound?
A: Its value is “inhibits the growth of breast cancer cells in vivo”.

Q: What about the “AML samples in which apoptosis was induced” value (primary AML cells; 1 μM) of the same compound?
A: The value was 3 of 6.

Q: And the “AML samples in which apoptosis was induced” value (primary AML cells; 5 μM)?
A: The value was 5 of 6.

Q: What about the “apoptosis in AML samples” value (primary AML cells; CDDO 1 μM, ara-C 1 μM, alone or combined, n=23 (DMSO control 27.7±3.7%)) of the same compound?
A: The value was 41.2±4.4%.

Q: What about the “paired mean difference±SEM in apoptosis” value (primary AML cells; CDDO vs DMSO) of the same compound?
A: The value was 13.5%±2.8.

Q: And the “apoptotic sub-G1 cells” value (HL-60 cells [5]; 1 μM, 48 hrs)?
A: Its value is 34.8%.

Q: What about the “concentration at which apoptosis was induced” value (HL-60 cells [5]; HL-60 cells) of the same compound?
A: Its value is 1 µM.

Q: Which “proliferation / structure formation of cytokine-stimulated vascular endothelial cells” value [1] does the source give for `COC(=O)[C@]12CCC(C)(C)C[C@H]1[C@H]1C(=O)C=C3[C@@]4(C)C=C(C#N)C(=O)C(C)(C)[C@@H]4CC[C@@]3(C)[C@]1(C)CC2` [CDDO-Me] here?
A: The value was “also inhibited”.

Q: And the “inhibition of colonies in one CML-BC sample” value (CML-BC sample)?
A: The value was > 50%.

Q: And the surviving colonies (AML progenitors; 0.1 μM)?
A: Its surviving colonies is 46.7%±6.6.

Q: What about the surviving colonies (AML progenitors; 0.3 μM) of the same compound?
A: Its surviving colonies is 27.5%±6.8.

Q: What about the surviving colonies (AML progenitors; 0.5 μM) of the same compound?
A: Its surviving colonies is 8.8%±3.8.

Q: What about the “formation of capillary-like structures by bone marrow endothelium” value [2] of the same compound?
A: The value was “inhibited”.

Q: And the “cell number, % of DMSO-controls” value (Daudi cells; 0.3 μM, 48 hrs)?
A: Its value is 22.5%.

Q: And the viable cells recovered (HL-60 cells [4]; 0.5 μM, 48 hrs)?
A: Its viable cells recovered is “essentially no viable cells”.

Q: What about the pIC50 (HL-60 cells [4]; read-out: IC50) of the same compound?
A: The pIC50 was 6.40.

Q: What about the “paired mean difference to DMSO control (mean±SEM), apoptotic cells” value (primary AML cells; 0.1 μM) of the same compound?
A: Its value is 26.9%±10.8.

Q: And the “paired mean difference to DMSO control (mean±SEM), apoptotic cells” value (primary AML cells; 0.5 μM)?
A: The value was 43.2%±5.2.

Q: And the “AML samples in which apoptosis was induced” value (primary AML cells; 1 μM)?
A: Its value is 5 of 6.

Q: And the “AML samples in which apoptosis was induced” value (primary AML cells; 5 μM)?
A: The value was 6 of 6.

Q: And the “samples with more than 90% apoptotic cells” value (primary AML cells; 5 μM)?
A: Its value is 4/6.

Q: And the “cell killing in AML samples” value (primary AML cells; CDDO-Me 1 μM, ara-C 1 μM, alone or combined, n=6 (DMSO control 24.9±7.4%))?
A: Its value is 50.5±15%.

Q: What about the “samples with dose-dependent increase in percentage of apoptotic cells” value (primary AML cells; lower concentrations) of the same compound?
A: The value was 4/4.
